Patent publication US20040018158A1, “Topical compositions including sunscreen compositions” (Tend Skin International, Inc., priority 1998, published 2004)

What was measured:
[1] = saturation concentration of acetylsalicylic acid in the solvent mixture; type: physicochemical; settings: solvent mixture: propylene glycol about 10% by volume, glycerine about 2 percent by volume, balance isopropyl alcohol/water solution with isopropyl alcohol about 70% by volume
[2] = solubility of acetylsalicylic acid in water; type: physicochemical
Source text: In preparing the composition, it can be helpful to gently warm while stirring the solvent mixture to assist the acetylsalicylic acid in completely dissolving in the solvent mixture. It has been observed that the typical consumer tends to prefer a product that is homogeneous in appearance and without any visible precipitate. […] Thus, aloe vera, for example, while it is soothing to the skin, tends to quickly hydrolyze acetylsalicylic acid. The hydrolysis of the acetylsalicylic acid would substantially and undesirably shorten the shelf life of the product.

- saturation concentration of the acetylsalicylic acid in this solvent mixture [1]: about 18 % by weight per unit volume
- solubility in water or water based substances [2]: virtually insoluble
Compound: CC(=O)Oc1ccccc1C(=O)O [acetylsalicylic acid]
